These compounds were tested against T1, human clotting factor VIIa (Homo sapiens, UniProt P08709) (assay: Inhibitory activity against clotting factor VIIa (chromogenic substrate Spectrozyme FVIIa, TF/Factor VIIa enzyme solution)). Details: human Factor VIIa 5 nmol/L with human TF 10 nmol/L, room temperature 40 minutes, 405 nm.
T1 construct: a human clotting factor VIIa (hereinafter, “Factor VIIa”) purified sample; purchased Enzyme Research Laboratories HFVIIa
Format: biochemical
Procedure, shortened: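 Human Factor VIIa (5 nmol/L) with human TF (10 nmol/L) in Tris-BSA buffer pH 7.4 containing 15 mmol/L CaCl2 and cephalin, with Spectrozyme FVIIa substrate. Reaction 40 min at room temperature; 4-nitroanilide read at 405 nm. IC50 by non-linear regression over 100 μmol/L–0.1 nmol/L.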

T1 sequence (P08709 213-466 limits assumed): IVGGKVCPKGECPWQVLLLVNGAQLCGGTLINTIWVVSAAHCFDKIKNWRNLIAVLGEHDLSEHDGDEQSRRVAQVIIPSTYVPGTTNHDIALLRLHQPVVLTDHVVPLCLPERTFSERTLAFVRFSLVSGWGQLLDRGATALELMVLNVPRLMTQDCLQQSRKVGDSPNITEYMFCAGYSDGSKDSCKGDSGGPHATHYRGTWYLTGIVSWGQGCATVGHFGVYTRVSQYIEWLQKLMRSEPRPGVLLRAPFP
T1 sequence (P08709 61-212 limits assumed): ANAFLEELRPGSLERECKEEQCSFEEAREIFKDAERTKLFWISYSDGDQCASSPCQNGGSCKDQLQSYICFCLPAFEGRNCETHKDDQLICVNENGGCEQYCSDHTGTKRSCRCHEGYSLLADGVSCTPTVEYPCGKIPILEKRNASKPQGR
T1 sequence (P13726 33-295 partner): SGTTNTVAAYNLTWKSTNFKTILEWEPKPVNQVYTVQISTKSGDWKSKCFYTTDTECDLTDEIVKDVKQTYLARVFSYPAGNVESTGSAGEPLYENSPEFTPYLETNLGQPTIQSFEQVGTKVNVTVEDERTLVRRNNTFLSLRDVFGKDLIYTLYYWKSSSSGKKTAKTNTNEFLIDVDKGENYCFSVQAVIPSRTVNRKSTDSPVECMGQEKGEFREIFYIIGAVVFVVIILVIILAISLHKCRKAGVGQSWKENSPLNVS

`COc1cc(C(Nc2ccc(C(=N)N)cc2)c2nn(-c3ccsc3C(=O)O)c(=O)[nH]2)cc(OC)c1OC` (racemic) [Example 227, 3-{3-[(R) and (S)-(4-Carbamimidoylphenylamino)-(3,4,5-trimethoxyphenyl)methyl]-5-oxo-4,5-dihydro-[1,2,4]triazol-1-yl}thiophene-2-carboxylic acid] and `COc1cc(C(Nc2ccc(C(=N)N)cc2)c2nn(-c3ccsc3C(=O)O)c(=O)[nH]2)cc(OCCO)c1OC` (racemic) [Example 230, (R) and (S)-3-(3-{(4-Carbamimidoylphenylamino)-[3-(2-hydroxyethoxy)-4,5-dimethoxyphenyl]methyl}-5-oxo-4,5-dihydro-[1,2,4]triazol-1-yl)thiophene-2-carboxylic acid] are within 1.5-fold of each other in IC50: 4.5 nM for the first, 4.9 nM for the second.

`COc1cc(OCCO)c(F)c(C(Nc2ccc(C(=N)N)cc2)c2nn(-c3ccsc3C(=O)O)c(=O)[nH]2)c1` (racemic) [Example 228, (R) and (S)-3-(3-{(4-Carbamimidoylphenylamino)-[2-fluoro-3-(2-hydroxyethoxy)-5-methoxyphenyl]methyl}-5-oxo-4,5-dihydro[1,2,4]triazol-1-yl)thiophene-2-carboxylic acid] and `CCOc1cc(C(Nc2ccc(C(=N)N)cc2)c2nn(-c3ccsc3C(=O)O)c(=O)[nH]2)cnc1OC` (racemic) [Example 235, 3-{3-[(4-Carbamimidoylphenylamino)-(5-ethoxy-6-methoxypyridin-3-yl)methyl]-5-oxo-4,5-dihydro-[1,2,4]triazol-1-yl}thiophene-2-carboxylic acid] are within 1.5-fold of each other in IC50: 2.6 nM for the first, 3.8 nM for the second.

Going from `COc1cc(OCCCO)c(F)c(C(Nc2ccc(C(=N)N)cc2)c2nn(-c3ncccn3)c(=O)[nH]2)c1` (racemic) [Example 229, (R) and (S)-4-{[[2-Fluoro-3-(3-hydroxypropoxy)-5-methoxyphenyl]-(5-oxo-1-pyrimidin-2-yl-4,5-dihydro-1H-[1,2,4]triazol-3-yl)methyl]amino}benzamidine acetate] to `COc1cc(C(Nc2ccc(C(=N)N)cc2)c2nn(-c3ncccn3)c(=O)[nH]2)cnc1OC` (racemic) [Example 234, 4-{[(5,6-Dimethoxypyridin-3-yl)-(5-oxo-1-pyrimidin-2-yl-4,5-dihydro-1H-[1,2,4]triazol-3-yl)methyl]amino}benzamidine], the IC50 rises from 5.1 nM to 11.1 nM (2.2-fold).

Going from `COc1cc(C(Nc2ccc(C(=N)N)c(F)c2)c2nn(-c3ccsc3C(=O)O)c(=O)[nH]2)c(F)c2c1OCCO2` (racemic) [Example 231, 3-{3-[(4-Carbamimidoyl-3-fluorophenylamino)-(5-fluoro-8-methoxy-2,3-dihydrobenzo[1,4]dioxin-6-yl)methyl]-5-oxo-4,5-dihydro-[1,2,4]triazol-1-yl}thiophene-2-carboxylic acid] to `COc1cc(OC)cc(C(Nc2ccc(C(=N)N)cc2)c2nn(-c3ncsc3C(=O)O)c(=O)[nH]2)c1` (racemic) [Example 232, (R) and (S)-4-{3-[(4-Carbamimidoylphenylamino)-(3,5-dimethoxyphenyl)methyl]-5-oxo-4,5-dihydro-[1,2,4]triazol-1-yl}thiazole-5-carboxylic acid], the IC50 rises from 6.5 nM to 23.7 nM (3.6-fold). The first is the more potent here.

Going from `COc1cc(C(Nc2ccc(C(=N)N)cc2)c2nn(-c3ncsc3C(=O)O)c(=O)[nH]2)cc(OCCO)c1OC` (racemic) [Example 233, (R) and (S)-4-(3-{(4-Carbamimidoylphenylamino)-[3-(2-hydroxyethoxy)-4,5-dimethoxyphenyl]methyl}-5-oxo-4,5-dihydro-[1,2,4]triazol-1-yl)thiazole-5-carboxylic acid] to `COc1cc(F)c(C(Nc2ccc(C(=N)N)cc2F)c2nn(-c3ncccn3)c(=O)[nH]2)cc1OC` (racemic) [Example 236, 3-Fluoro-4-{[(R) and (S)-(2-fluoro-4,5-dimethoxyphenyl)-(5-oxo-1-pyrimidin-2-yl-4,5-dihydro-1H-[1,2,4]triazol-3-yl)methyl]amino}benzamidine acetate], the IC50 falls from 23.8 nM to 11.8 nM (2-fold).
